Assays:
Type in all cases: in vivo
[1] = system: mice; test: Hypercalcemia assay: murine hypercalcemia model, single SC injection, blood ionized calcium
Experimental: Mice were challenged with vehicle (PBS, —X—), or with PTH-(1-34) (open symbols) or with PTH-(1-34)-Fc (closed symbols). Doses were 156 nmol/kg (circles), 469 nmol/kg (triangles) or 1,560 nmol/kg (squares). Data represent group means, n=6 mice/group.
We tested the potency and duration of effect of PTH-(1-34)-Fc in a murine hypercalcemia model. Briefly, mice were injected once SC with varying doses of PTH-(1-34) or PTH-(1-34)-Fc, and peripheral blood was collected from the retroorbital sinus for determination of blood ionized calcium. The half-life and the potency of PTH-(1-34)-Fc was greater than that of PTH-(1-34), as evidenced by the sustained hypercalcemic response of mice to the former agent (FIG. 4). Hypercalcemia induced by PTH-(1-34) persisted for 6-24 h, while equimolar doses of PTH-(1-34)-Fc caused more sustained hypercalcemia (48-72 h). This duration of response is consistent with greater half-life of the PTH-(1-34)-Fc construct vs. PTH-(1-34).

[2] = system: mice; test: Chronic hypercalcemia induced by PTH-(1-34)-Fc challenge, antagonist given SC; settings: 30 mg/kg single SC, 24 h post challenge, vehicle-treated normal mice (normal control 1.35); the values are: blood ionized calcium
Experimental: Normal male mice were challenged once by SC injection with PTH-(1-34)-Fc (30 mg/kg) (open circles), or with vehicle (PBS, open squares). Some PTH-(1-34)-Fc-challenged mice were treated once, at the time of challenge, with [Asn10,Leu11]PTHrP-(7-34)-Fc at 10 (closed triangle), 30 (closed circle), or 100 mg/kg (closed square). […] Data represent means±SEM, n=5 mice/group.
In order to test the ability of [Asn10,Leu11]PTHrP-(7-34)-Fc to antagonize more chronic hypercalcemia, we used PTH-(1-34)-Fc as a long-acting calcemic agent. This study also represents a model for primary and secondary hyperparathyroidism, diseases which are characterized by persistent elevation of PTH levels. In vehicle-treated mice, a single SC injection of PTH-(1-34)-Fc (30 mg/kg) caused a robust hypercalcemic response in normal mice, reaching a level of 2.75 mg/dl at 24 h post challenge (vs. normal control value of 1.35).

[3] = system: mice; test: Mouse bioassay: SC injection days 0, 5, 10; clinical chemistry (calcium, AP, TRAP) and tibial pQCT
Experimental: Peripheral blood was obtained daily for 3 days following single subcutaneous injections of the indicated compounds.
Peripheral quantitative computed tomography (pQCT) was performed on the proximal tibial metaphysis of mice on day 15, after injections of PTH constructs on day 0, 5 and 10.
We then tested the effects of PTH-(1-34), PTH-(1-34)-Fc, PTH-(1-31)-Fc and PTH-(1-30)-Fc in mice. Four week old male mice were injected on days 0, 5, and 10 with vehicle or with PTH fragments, by SC injection. Peripheral blood was obtained for clinical chemistry at 24, 48, and 72 h. Mice were killed on day 15, vertebrae, tibiae and femurs were harvested for histology and one tibia was collected for bone density measurements (peripheral quantitative computed tomography, pQCT). Clinical chemistry endpoints included total serum calcium, serum alkaline phosphatase (AP, a marker of osteoblast activity), and serum tartrate-resistant acid phosphatase (TRAP, a marker of osteoclast activity). For each animal, the ratio of AP:TRAP was calculated as an index of relative osteoblast activity compared to osteoclast activity. A higher AP:TRAP ratio would indicate a potentially more anabolic agent.

[4] = system: male BDF1 mice; test: Monotherapy in adult mice: twice-weekly PTH-(1-34)-Fc versus daily PTH-(1-34), tibial BMD by pQCT
Experimental: Daily PTH [PTH-(1-34)] was given at 80 μg/kg/day (20 nmol/kg/day).
Briefly, male BDF1 mice (4 months of age) were treated twice per week by subcutaneous injection with various doses of PTH-(1-34)-Fc or with vehicle (PBS). Other mice were treated daily with SC injections of PTH-(1-34) at a dose of 80 μg/kg/day (20 nmol/kg/day), a treatment regimen which is optimal for increasing bone mass in rodents (M. Gunness-Hey and J. M. Hock, Metab. Bone Dis. & Rel. Res. 5:177-181, 1984). After 3 weeks, mice were sacrificed and tibiae were analyzed for bone mineral density (BMD) via pQCT (FIG. 10).

[5] = system: aged ovariectomized (OVX) rats; test: Monotherapy in aged ovariectomized (OVX) rats: twice-weekly treatment, BMD by DEXA and serum calcium
Experimental: Eleven months after OVX, rats were treated twice per week with phosphate-buffered saline (PBS, vehicle) or with APD (0.5 mg/kg) or with PTH-(1-34)-Fc (50 nmol/kg). DEXA was performed weekly. Blood was drawn 24 hours after the second weekly injection, when the calcemic effects of PTH-Fc are typically maximal. The effects of PTH-Fc administration on lumbar BMD (FIG. 11A), tibia/femur BMD (FIG. 11B), femoral metaphysis BMD (FIG. 11C), and serum calcium (FIG. 11D) were determined.
Sprague Dawley rats were OVX'd at 3 months of age and allowed to lose bone for 11 months. Other rats were sham-operated and treated twice per week with vehicle (PBS). OVX rats were treated twice per week with SC injections of either vehicle or the bisphosphonate APD (pamidronate, 0.5 mg/kg), or with PTH-(1-34)-Fc (50 nmol/kg) or with APD+PTH-(1-34)-Fc. BMD was determined weekly via dual energy X-ray absorptiometry (DEXA). Rats were sacrificed after 4 weeks of treatment. At the start of treatment, OVX rats had significant reductions in BMD at all skeletal sites analyzed, compared to vehicle-treated […] (FIG. 11, p<0.05, 2-way ANOVA).

[6] = system: OVX cynomolgus monkeys; test: Single subcutaneous injection into OVX cynomolgus monkeys, serum total calcium
Experimental: Monkeys were injected with PTH-(1-34)-Fc at doses of 1-30 μg/kg (n=1/group) or 100-1000 μg/kg (n=2/group). Serum was analyzed for total calcium. The dotted line indicates the threshold for hypercalcemia, based on an elevation of calcium greater than three standard deviations above the normal mean, on two or more consecutive timepoints.
The optimal dosing of primates may be less frequent compared to rats or mice. Weekly (or less frequent) dosing may be optimal in primates, based on the observation that the hypercalcemic response of OVX cynomolgus monkeys to a single subcutaneous injection of PTH-(1-34)-Fc (10-34 nmol/kg) persisted for about 168 hours (FIG. 11).

[7] = 3 weeks, PTH-(1-34) daily 80 μg/kg/day, PTH-(1-34)-Fc twice weekly, various doses
[8] = two highest doses, 50 and 150 nmol/kg twice weekly

“PTH-(1-34)-Fc: human PTH-(1-34), SVSEIQLMHNLGKHLNSMERVEWLRKKLQDVHNF, linked at its C-terminus to an Fc domain” was tested, and the “peak ionized calcium levels compared with an equimolar dose of PTH-(1-34)” value ([1]; highest dose) was “greater increase in peak ionized calcium levels”, the “hypercalcemic response (area under the curve) relative to equimolar PTH-(1-34)” value ([1]; highest dose employed) was 2.6 fold and the “potency compared with PTH-(1-34)” value ([1]; hypercalcemic response) was “significantly greater”. The duration of hypercalcemia ([1]; single SC injection, equimolar doses, blood ionized calcium) was 48 to 72 h, the level reached in hypercalcemic response [2] was 2.75 mM and the “calculated AP:TRAP ratio” value ([3]; 300 nmoles/kg) was “increased over time”. For the same substance, the “serum AP (osteoblast marker)” value ([3]; 300 nmoles/kg (given for PTH-(1-34)-Fc), 72 h) was “significantly elevated”, the “time of peak serum calcium” value ([3]; 300 nmoles/kg SC) was 24 h and the serum calcium ([3]; 300 nmoles/kg SC (equimolar), 24, 48, 72 h) was “dramatic and sustained increase”. For the same substance, the “bone mineral density (proximal tibial metaphysis)” value ([3]; 300 nmoles/kg on day 0, 5, 10, pQCT day 15) was “no effect”, the “serum TRAP (osteoclast marker)” value ([3]; mice, after single SC injection) was “not significantly changed” and the “cancellous BMD compared to vehicle” value [4, 7] was “dose-dependent increases”. For the same substance, the “total tibial BMD compared to vehicle” value [4, 7] was “dose-dependent increases”, the “cortical BMD in the tibia” value ([4]; 3 weeks, PTH-(1-34) daily, PTH-(1-34)-Fc twice weekly, various doses) was “dose-dependent increase” and the “bone density and bone volume compared to daily PTH-(1-34)” value ([4]; adult mice, twice weekly dosing) was “greater increases in bone density and bone volume”. For the same substance, the “cortical BMD versus vehicle or daily PTH-(1-34)” value ([4]; highest dose twice weekly, p<0.05) was “significantly greater”, the “cancellous BMD versus vehicle or daily PTH-(1-34)” value [4, 8] was “significantly greater” and the “total BMD versus vehicle or daily PTH-(1-34)” value [4, 8] was “significantly greater”. For the same substance, the calcemic response ([5]; 50 nmol/kg twice per week, alone) was “mild and transient hypercalcemic response”, the “BMD at the femoral metaphysis” value ([5]; PTH-(1-34)-Fc 50 nmol/kg twice per week, alone or with APD 0.5 mg/kg, p<0.05) was “significant increase in BMD” and the “day after which hypercalcemic response resolved spontaneously” value ([5]; despite continued treatments) was over 10 days. For the same substance, the “reversal of bone loss induced by one year of estrogen ablation” value ([5]; twice weekly dosing) was “more than 50%”, the “duration of treatment at which BMD increase at the femoral metaphysis was significant” value ([5]; twice-weekly treatment) was 4 weeks and the “time within which a single subcutaneous dose is cleared” value ([6]; primates, inferred from calcemic response) was at most 1 week. For the same substance, the “persistence of hypercalcemic response” value ([6]; single subcutaneous injection 10-34 nmol/kg) was “about 168 hours”.
